According to patent publication US20110045101A1, “FUNGICIDAL SUBSTITUTED AZOLES” (E.I. Du Pont De Nemours and Company, priority 2009, published 2011):
Marks after values point to notes of the source that are not given here.

How the values were obtained:
Assay type in all cases: in vivo
Settings in all cases: 100 = 100% disease control
Botrytis cinerea = assay: Test C: tomato Botrytis on tomato seedlings, sprayed the day before inoculation, visual disease rating
Summary of the method: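 Disease ratings refer to tomato seedlings treated by run-off spraying with compound suspensions, mostly 200 ppm (500 g/ha equivalent) and in marked cases 40 ppm. Carrier: acetone/purified water 50/50 with 250 ppm polyhydric alcohol ester surfactant, after predissolving in acetone.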

Alternaria solani = assay: Test D: tomato early blight, sprayed the day before inoculation, visual disease rating
Summary of the method: (§1)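 Acetone solution (3% of final volume) of each compound is suspended in 50/50 acetone/water with 250 ppm Trem® 014. Plants are sprayed to run-off at 200 ppm, equivalent to 500 g/ha, or at 40 ppm for starred values.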

Septoria nodorum = assay: Test F: wheat glume blotch on wheat seedlings, sprayed the day before inoculation, visual disease rating
Summary of the method: as §1

Septoria tritici = assay: Test G: wheat leaf blotch on wheat seedlings, sprayed the day before inoculation, visual disease rating
Summary of the method: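 Visual disease ratings taken 19 days after transfer to a 20° C growth chamber, following 48 h in saturated atmosphere at 24° C. Seedlings had been sprayed to run-off one day before spore inoculation. Dose 200 ppm, or 40 ppm where starred.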

[1] = system: Puccinia recondita f. sp. tritici; assay: Test H: wheat leaf rust, test suspension sprayed after inoculation of wheat seedlings, visual disease rating
Summary of the method: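 Wheat seedlings inoculated with P. recondita spores, held 24 h saturated at 20 °C, then 2 days in growth chamber at 20 °C; compound suspension (acetone/water with Trem 014) sprayed to run-off afterwards. Rated visually; 200 ppm (≈500 g/ha) unless marked *, which denotes 40 ppm.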

[2] = system: Puccinia recondita f. sp. tritici; assay: Test I: wheat leaf rust on wheat seedlings, sprayed the day before inoculation, visual disease rating
Summary of the method: as §1

[3] = system: Erysiphe graminis f. sp. tritici; assay: Test J: wheat powdery mildew on wheat seedlings, sprayed the day before inoculation, visual disease rating
Summary of the method: as §1

[4] = 200 ppm, 0 = no control relative to controls
[5] = 40 ppm (marked *), 0 = no control

| SMILES | Test C disease control rating (Botrytis cinerea; [4]) [%] | Test D disease control rating (Alternaria solani; [4]) [%] | Test F disease control rating (Septoria nodorum; [4]) [%] | Test G disease control rating (Septoria tritici; [4]) [%] | Test H disease control rating [1, 4] [%] | Test I disease control rating [2, 4] [%] | Test J disease control rating [3, 4] [%] | also measured |
| --- | --- | --- | --- | --- | --- | --- | --- | --- |
| Cc1nc(Cl)n(-c2ccc(Cl)nc2)c1-c1c(F)ccc(C#N)c1F [compound 716] | 100 | 100 | 95 | 100 | 100 | 99 | 99 | – |
| CCOc1ccc(F)c(-c2c(Cl)nc(Cl)n2-c2ccc(Cl)cc2)c1F [compound 664] | 100 | 99 | 96 | 99 | 46 | 97 | 100 | – |
| COc1ccc(F)c(-c2c(Cl)nc(C)n2-c2ccc(Br)cc2)c1F [compound 582] | 100 | 100 | 99 | 97 | 15 | 99 | 100 | – |
| Fc1cc(F)c(-c2c(Cl)nc(Cl)n2-c2cccc(OC(F)(F)F)c2)c(F)c1 [compound 599] | 26 | 0 | 0 | 9 | 0 | 0 | 0 | – |
| CN(C)c1ccc(-n2cnc(Cl)c2-c2c(F)cccc2F)cc1Cl [compound 650] | – | – | – | – | – | – | – | Test C disease control rating (Botrytis cinerea; 40 ppm (marked *)): 0* %; Test D disease control rating (Alternaria solani; 40 ppm (marked *)): 0* %; Test F disease control rating (Septoria nodorum; 40 ppm (marked *)): 0* %; Test G disease control rating (Septoria tritici; 40 ppm (marked *)): 0* %; Test H disease control rating ([1]; 40 ppm (marked *)): 9* %; Test I disease control rating ([2]; 40 ppm (marked *)): 0* %; Test J disease control rating ([3]; 40 ppm (marked *)): 0* % |
| COc1cc(F)c(-c2c(Cl)nc(C)n2Cc2ccc(C)nc2)c(F)c1 [compound 671] | 99 | 100 | 92 | 95 | 17 | 78 | 0 | – |
| COc1cc(F)c(-c2c(Cl)nc(Cl)n2-c2ccc(NC(C)=O)nc2)c(F)c1 [compound 673] | 99 | 100 | 99 | 99 | 9 | 100 | 90 | – |
| Cc1nc(Cl)n(-c2ccc(Cl)cc2)c1-c1c(F)ccc(F)c1F [compound 412] | – | – | – | – | – | – | – | Test C disease control rating (Botrytis cinerea; [5]): 100* %; Test D disease control rating (Alternaria solani; [5]): 100* %; Test F disease control rating (Septoria nodorum; [5]): 0* %; Test G disease control rating (Septoria tritici; [5]): 99* %; Test H disease control rating [1, 5]: 0* %; Test I disease control rating [2, 5]: 74* %; Test J disease control rating [3, 5]: 99* % |
| Cc1nn(C)c(Cc2ccc(Cl)cc2)c1-c1ccc(F)cc1Cl [compound 344] | 100 | 0 | 0 | 95 | 17 | 89 | 99 | – |
| Cc1nc(Cl)n(-c2ccc(Cl)cn2)c1-c1c(F)cccc1F [compound 321] | 100 | 100 | 100 | 100 | 83 | 100 | 100 | – |
| COc1cc(F)c(-c2c(Cl)nc(Cl)n2-c2cccnc2OC)c(F)c1 [compound 676] | 100 | 99 | 99 | 99 | 99 | 100 | 98 | – |
| COc1cc(F)c(-c2c(C)nnn2-c2ccc(Cl)cc2)c(F)c1 [compound 628] | 99 | 100 | 0 | 100 | 0 | 99 | 99 | – |
| Cc1nc(Cl)c(-c2c(F)cccc2F)n1-c1ccc(Cl)c2ccccc12 [compound 304] | – | – | – | – | – | – | – | Test C disease control rating (Botrytis cinerea; [5]): 0* %; Test D disease control rating (Alternaria solani; [5]): 0* %; Test F disease control rating (Septoria nodorum; [5]): 0* %; Test G disease control rating (Septoria tritici; [5]): 27* %; Test H disease control rating [1, 5]: 0* %; Test I disease control rating [2, 5]: 0* %; Test J disease control rating [3, 5]: 0* % |
| Cc1nc(Cl)c(-c2c(F)cccc2F)n1-c1ccc(SCCl)cc1 [compound 529] | 0 | 0 | 0 | 82 | 9 | 48 | 0 | – |
| Fc1ccc(-n2cnc(Br)c2-c2c(F)cc(F)cc2F)cc1 [compound 507] | 100 | 95 | 0 | 88 | 0 | 100 | 98 | – |
| Cc1nc(Cl)n(-c2ccc(F)cc2Cl)c1-c1ccc(Cl)cc1 [compound 503] | 99 | 99 | 99 | 96 | 0 | 100 | 100 | – |
| Cc1nc(Cl)c(-c2c(F)cccc2F)n1-c1ccc2ncccc2c1 [compound 468] | – | – | – | – | – | – | – | Test C disease control rating (Botrytis cinerea; 40 ppm (marked *)): 99* %; Test D disease control rating (Alternaria solani; 40 ppm (marked *)): 99* %; Test F disease control rating (Septoria nodorum; 40 ppm (marked *)): 0* %; Test G disease control rating (Septoria tritici; 40 ppm (marked *)): 96* %; Test H disease control rating ([1]; 40 ppm (marked *)): 0* %; Test I disease control rating ([2]; 40 ppm (marked *)): 91* %; Test J disease control rating ([3]; 40 ppm (marked *)): 58* % |
| COc1cc(F)c(-c2c(Br)nc(Br)n2-c2ccc(F)cc2)c(F)c1 [compound 523] | – | – | – | – | – | – | – | Test C disease control rating (Botrytis cinerea; 40 ppm (marked *)): 100* %; Test D disease control rating (Alternaria solani; 40 ppm (marked *)): 100* %; Test F disease control rating (Septoria nodorum; 40 ppm (marked *)): 0* %; Test G disease control rating (Septoria tritici; 40 ppm (marked *)): 98* %; Test H disease control rating ([1]; 40 ppm (marked *)): 0* %; Test I disease control rating ([2]; 40 ppm (marked *)): 99* %; Test J disease control rating ([3]; 40 ppm (marked *)): 97* % |
| COc1nc(Cl)ccc1-n1c(Cl)nc(Cl)c1-c1c(F)cccc1F [compound 619] | 99 | 53 | 0 | 96 | 51 | 98 | 99 | – |
| CCOc1ccc(F)c(-c2c(Cl)ncn2-c2cccc(F)c2)c1F [compound 661] | 99 | 99 | 87 | 99 | 0 | 100 | 100 | – |
| CN(C)c1ccc(-n2c(Br)nc(N(C)C)c2-c2c(F)cccc2F)cc1Br [compound 689] | 0 | 0 | 0 | 0 | 0 | 0 | 0 | – |
| Fc1cc(F)c(-c2c(Cl)nc(Br)n2-c2cccc(OC(F)F)c2)c(F)c1 [compound 603] | 99 | 100 | 99 | 99 | 98 | 100 | 100 | – |
| Fc1ccc(-n2c(Cl)nc(Cl)c2-c2ccc(Cl)c(F)c2)c(Cl)c1 [compound 302] | 100 | 100 | 0 | 94 | 17 | 98 | 100 | – |
| COc1ccc(F)c(-c2c(Cl)nc(C)n2-c2ccc(C#N)cc2)c1F [compound 615] | 100 | 100 | 0 | 100 | 0 | 99 | 100 | – |
| COc1cc(F)c(-n2c(Cl)nc(C)c2-c2cccc(F)c2)c(F)c1 [compound 686] | – | – | – | – | – | – | – | Test C disease control rating (Botrytis cinerea; 40 ppm (marked *)): 100* %; Test D disease control rating (Alternaria solani; 40 ppm (marked *)): 100* %; Test F disease control rating (Septoria nodorum; 40 ppm (marked *)): 82* %; Test G disease control rating (Septoria tritici; 40 ppm (marked *)): 98* %; Test H disease control rating ([1]; 40 ppm (marked *)): 98* %; Test I disease control rating ([2]; 40 ppm (marked *)): 99* %; Test J disease control rating ([3]; 40 ppm (marked *)): 98* % |
